IC50 and inhibition data for 17 compounds are collected here from ChEMBL document CHEMBL1145163, “Structure-based design, synthesis, and memapsin 2 (BACE) inhibitory activity of carbocyclic and heterocyclic peptidomimetics” (J Med Chem, 2005).

The target of experiment [1] is T1, Cathepsin D (Homo sapiens, UniProt P07339). The experiment can be described thus: Inhibitory concentration against human Cathepsin D.
The target of experiment [2] is T2, Beta-secretase 1 (Homo sapiens, UniProt P56817). The experiment can be described thus: Inhibitory concentration against human Membrane-associated aspartic protease 2.
T2 sequence (P56817 whole entry): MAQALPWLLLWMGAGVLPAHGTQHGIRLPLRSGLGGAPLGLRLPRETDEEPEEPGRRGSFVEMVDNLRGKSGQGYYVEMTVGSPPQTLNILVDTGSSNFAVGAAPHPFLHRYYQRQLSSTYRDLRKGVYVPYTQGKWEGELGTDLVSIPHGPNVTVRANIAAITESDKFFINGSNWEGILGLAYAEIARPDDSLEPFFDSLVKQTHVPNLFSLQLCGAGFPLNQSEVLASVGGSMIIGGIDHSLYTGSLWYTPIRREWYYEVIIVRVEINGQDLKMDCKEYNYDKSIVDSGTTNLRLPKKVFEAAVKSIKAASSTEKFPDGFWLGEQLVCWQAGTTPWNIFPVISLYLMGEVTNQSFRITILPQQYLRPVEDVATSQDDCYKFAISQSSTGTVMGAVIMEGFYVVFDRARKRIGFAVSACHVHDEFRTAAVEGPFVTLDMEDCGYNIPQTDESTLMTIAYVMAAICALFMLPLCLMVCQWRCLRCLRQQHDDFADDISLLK
For experiment [3], the target named is T1, Cathepsin D. The experiment in a line: Inhibitory activity against human Cathepsin D at 0.01 uM.
Experiment [4] concerns the target T2, Beta-secretase 1. The experiment in a line: Inhibitory activity against human beta-site APP-cleaving enzyme 1 at 0.01 uM.

What is called IC50 is the concentration that gives 50% inhibition. Lower therefore signals inhibition by little substance. As a reminder, the inhibition is the relative decrease from the control value, in per cent. A lower inhibition goes with a response near the control.

Molecules are shown by their SMILES. Starred links: 1 amine or outer side, 2 acyl side, 3 side chain; linkers in the order of their positions; H or OH if unused. Non-standard residues stand in square brackets, D forms with d. Residues, ends and D or L forms follow the SMILES beside them. LeuΨ(S-CHOHCH2)Ala = CC(C)C[C@H](N[*:1])[C@@H](O)C[C@@H](C)C(=O)[*:2]; X1 = CC(C)C[C@H](N[*:1])[C@@H](O)[C@@H]1CCC[C@H]1C(=O)[*:2]

T1 sequence (P07339 65-162 limits assumed): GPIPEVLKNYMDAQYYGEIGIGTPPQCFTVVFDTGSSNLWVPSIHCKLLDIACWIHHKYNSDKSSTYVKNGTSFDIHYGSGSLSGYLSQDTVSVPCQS
T1 sequence (P07339 169-412 limits assumed): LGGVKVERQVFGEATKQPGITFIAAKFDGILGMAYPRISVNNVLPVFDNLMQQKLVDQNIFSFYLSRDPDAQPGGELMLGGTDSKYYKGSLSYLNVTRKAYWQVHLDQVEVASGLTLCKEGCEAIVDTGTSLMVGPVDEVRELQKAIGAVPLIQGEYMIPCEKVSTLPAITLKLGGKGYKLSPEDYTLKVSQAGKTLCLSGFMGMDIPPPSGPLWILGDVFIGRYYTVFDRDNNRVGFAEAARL

Take `CCCCNC(=O)[C@@H](NC(=O)[C@@H]1C(=O)N(CC)C[C@H]1[C@H](O)[C@H](CC(C)C)NC(=O)[C@H](CCSC)NC(=O)[C@H](CC(C)C)NC(C)=O)C(C)C`: the results for the half-inhibitory concentration (IC50) at Cathepsin D [1] and at Beta-secretase 1 [2] were 130 nM and 3350 nM, respectively.
For `CC(C)C[C@H](NC(=O)[C@H](CC(N)=O)NC(=O)[C@@H](NC(=O)[C@@H](N)CCC(=O)O)C(C)C)[C@@H](O)[C@@H]1CCC[C@H]1C(=O)N[C@@H](C)C(=O)O` (H-EVN[X1]A-OH), on Cathepsin D [1], the midpoint of inhibition, the IC50, lay at 6000 nM.
Turning to `CCCCNC(=O)[C@@H]1CCC[C@H]1[C@H](O)[C@H](CC(C)C)NC(=O)[C@H](CCSC)NC(=O)[C@H](CC(C)C)NC(C)=O`, the half-inhibitory concentration (IC50) against Cathepsin D [1] is 60 nM; on Beta-secretase 1 [2], 1820 nM.
For `CCCCNC(=O)[C@@H](NC(=O)[C@@H]1CCC[C@H]1[C@H](O)[C@H](CC(C)C)NC(=O)[C@H](CCSC)NC(=O)[C@H](CC(C)C)NC(C)=O)C(C)C`, the concentration for half-maximal inhibition (IC50) was under 10 nM against Cathepsin D [1] and 25 nM at Beta-secretase 1 [2]. The same compound displayed an inhibition on Cathepsin D [3] of 100%.
With `CCCCNC(=O)[C@@H](NC(=O)[C@@H]1CN(C)C[C@H]1[C@H](O)[C@H](CC(C)C)NC(=O)[C@H](CCSC)NC(=O)[C@H](CC(C)C)NC(C)=O)C(C)C`, the IC50 against Cathepsin D [1] is 1230 nM; against Beta-secretase 1 [2] it was 3440 nM.
Consider `CCCCNC(=O)[C@@H](NC(=O)[C@@H]1OCC[C@H]1[C@H](O)[C@H](CC(C)C)NC(=O)[C@H](CCSC)NC(=O)[C@H](CC(C)C)NC(C)=O)C(C)C`, for which the half-maximal inhibitory concentration (IC50) at Cathepsin D [1] was found to be 280 nM; at Beta-secretase 1 [2] it was 9560 nM.
Take `CCCCNC(=O)[C@@H](NC(=O)[C@@H]1CC(=O)C[C@H]1[C@H](O)[C@H](CC(C)C)NC(=O)[C@H](CCSC)NC(=O)[C@H](CC(C)C)NC(C)=O)C(C)C`: the half-maximal inhibitory concentration (IC50) against Cathepsin D [1] was determined as 56 nM.
For the compound `CC(C)C[C@H](NC(=O)[C@H](CC(N)=O)NC(=O)[C@@H](NC(=O)[C@@H](N)CCC(=O)O)C(C)C)[C@@H](O)C[C@@H](C)C(=O)N[C@@H](C)C(=O)N[C@@H](CCC(=O)O)C(=O)N[C@@H](Cc1ccccc1)C(=O)O` (H-EVN[LeuΨ(S-CHOHCH2)Ala]AEF-OH), on Cathepsin D [1], 6 nM corresponded to half-maximal inhibition (IC50).
Take `CC(C)C[C@H](NC(=O)[C@H](CC(N)=O)NC(=O)[C@@H](NC(=O)[C@@H](N)CCC(=O)O)C(C)C)[C@@H](O)[C@@H]1CCC[C@H]1C(=O)N[C@@H](C)C(=O)N[C@@H](CCC(=O)O)C(=O)O` (H-EVN[X1]AE-OH): the IC50 on Cathepsin D [1] is 60 nM; at Beta-secretase 1 [2], 40 nM.
For the compound `C=C1C[C@@H]([C@H](O)[C@H](CC(C)C)NC(=O)[C@H](CCSC)NC(=O)[C@H](CC(C)C)NC(C)=O)[C@H](C(=O)N[C@@H](C)C(=O)O)C1`, the IC50 is 430 nM at Cathepsin D [1] and over 10000 nM against Beta-secretase 1 [2].
In the same order, the values of `CC(C)C[C@H](NC(=O)[C@H](CC(N)=O)NC(=O)[C@@H](NC(=O)[C@@H](N)CCC(=O)O)C(C)C)[C@@H](O)C[C@@H](C)C(=O)N[C@@H](C)C(=O)O` (H-EVN[LeuΨ(S-CHOHCH2)Ala]A-OH) are 98 nM and 12 nM.
Regarding `CC(C)C[C@H](NC(=O)[C@H](CC(N)=O)NC(=O)[C@@H](NC(=O)[C@@H](N)CCC(=O)O)C(C)C)[C@@H](O)[C@@H]1CCC[C@H]1C(=O)N[C@@H](C)C(=O)N[C@@H](CCC(=O)O)C(=O)N[C@@H](Cc1ccccc1)C(=O)O` [CARBOCYCLIC PEPTIDOMIMETIC] (H-EVN[X1]AEF-OH), the IC50 was under 10 nM against Cathepsin D [1] and 16 nM at Beta-secretase 1 [2]. At Cathepsin D [3], this compound showed an inhibition of 90%.
Consider `CSCC[C@H](NC(=O)[C@H](CC(C)C)NC(C)=O)C(=O)N[C@@H](CC(C)C)[C@@H](O)[C@@H]1CCC[C@H]1C(=O)N[C@H](C(=O)O)C(C)C`, for which the IC50 against Cathepsin D [1] is 25 nM; against Beta-secretase 1 [2] it was 190 nM.
Take `CCCCNC(=O)[C@H](C)NC(=O)[C@@H]1CCC[C@H]1[C@H](O)[C@H](CC(C)C)NC(=O)[C@H](CCSC)NC(=O)[C@H](CC(C)C)NC(C)=O`: the IC50 at Cathepsin D [1] is under 10 nM; against Beta-secretase 1 [2], 185 nM. Further, the inhibition at Cathepsin D [3] was 95%.
Consider `CSCC[C@H](NC(=O)[C@H](CC(C)C)NC(C)=O)C(=O)N[C@@H](CC(C)C)[C@@H](O)[C@@H]1CCC[C@H]1C(=O)N[C@@H](C)C(=O)O`, for which the IC50 against Cathepsin D [1] was found to be 90 nM; against Beta-secretase 1 [2], 60 nM.
Consider `CSCC[C@H](NC(=O)[C@H](CC(C)C)NC(C)=O)C(=O)N[C@@H](CC(C)C)[C@@H](O)[C@@H]1CC(=O)C[C@H]1C(=O)N[C@@H](C)C(=O)O`, for which the IC50 on Cathepsin D [1] worked out at 1500 nM; against Beta-secretase 1 [2], 720 nM.
For `CCCCNC(=O)[C@@H](NC(=O)[C@H]1[C@H]([C@H](O)[C@H](CC(C)C)NC(=O)[C@H](CCSC)NC(=O)[C@H](CC(C)C)NC(C)=O)CC(=O)N1C)C(C)C`, the figures for the IC50 against Cathepsin D [1] and against Beta-secretase 1 [2] were 70 nM and under 10 nM, respectively. Further, the inhibition on Beta-secretase 1 [4] was 79%.
